Converted amounts (≈) assume the structure as drawn. Structures can show the parent of a compound that is named as a salt. Where two headings read alike, the source gives them in different places.
Experiments:
Stap. Aureus CMX 553 = experiment: Second in vitro MIC test, Brain Heart Infusion Broth (BHIB); format: cell-based
Strep. pyogenes EES 61 = experiment: as above; format: cell-based
E. Coli Juhl [1] = experiment: as above; format: cell-based
Ps. Aeruginosa A5007 = experiment: as above; format: cell-based
E. Coli Juhl [2] = experiment: Acute mouse protection test; format: in vivo; settings: mice infected i.p. with E. Coli JUHL, observed 7 days; for SC (ED50): SC dosing at 1 and 5 hours post-infection; for Oral (ED50): oral dosing at 1 and 5 hours post-infection
P. Aeruginosa A5007 = experiment: Acute mouse protection test; format: in vivo; settings: mice infected i.p. with P. Aeruginosa A5007, observed 7 days; for SC (ED50): SC dosing at 1 and 5 hours post-infection; for Oral (ED50): oral dosing at 1 and 5 hours post-infection
Stap. Aureus NCTC 10649 = experiment: Acute mouse protection test; format: in vivo; settings: mice infected i.p. with Stap. Aureus NCTC 10649, observed 7 days; for SC (ED50): SC dosing at 1 and 5 hours post-infection; for Oral (ED50): oral dosing at 1 and 5 hours post-infection
[3] = system: MICROCOCCUS LUTEUS ATCC 9341; experiment: In vitro MIC, agar dilution (BHIA); format: cell-based
[4] = system: MICROCOCCUS LUTEUS ATCC 4698; experiment: In vitro MIC, agar dilution (BHIA); format: cell-based
[5] = system: PROVIDENCIA STUARTII CMX 640; experiment: In vitro MIC, agar dilution (BHIA); format: cell-based; settings: read-out: MIC
[6] = system: PSEUDOMONAS AERUGINOSA A5007; experiment: In vitro MIC, agar dilution (BHIA); format: cell-based
[7] = system: PSEUDOMONAS AERUGINOSA K799/WT; experiment: In vitro MIC, agar dilution (BHIA); format: cell-based
PSEUDOMONAS CEPACIA 296I = experiment: In vitro MIC, agar dilution (BHIA); format: cell-based
[8] = Conversion of prodrug to parent drug in whole blood at 37° C.; format: in vitro ADME, Dog
Experimental: (§1) An aqueous solution of prodrug (Z) is spiked into fresh whole blood containing sodium heparin as an anticoagulant. The sample is mixed gently by inversion and placed in a 37° waterbath. At selected time intervals an 0.5 ml aliquot of blood is removed and placed in a chilled 1.5 ml centrifuge tube (ice temperature). Samples are centrifuges at 13,000 rpm for two minutes to separate plasma. An 0.2 ml aliquot of the plasma sample is combined with 0.2 ml internal standard (7-(4-amino-2-methyl-1-pyrrolidinyl)-1-(2,4-difluorophenyl)-6-fluoro-1,4-d ihydro-4-oxo-1,8-naphthyridine-3-carboxylic acid in 0.2M sodium phosphate pH 7.2 buffer) and 6 mls CH2 Cl2 :EtoH (9:1 by volume). Samples are capped and shaken gently for 10 minutes. Samples are centrifuges at 2500 rpm for 10 minutes (4° C.). The aqueous layer is aspirated to waste and the organic layer is transferred to a conical centrifuge tube and evaporated to dryness with a stream of dry air and low heat ([…]). Samples are reconstituted with 0.2 ml mobile phase followed by vortexing. Samples are centrifuges at 2500 rpm for 10 minutes to separate precipitate. The supernatant is transferred to a WISP vial with plastic insert for HPLC analysis.

[9] = system: ENTEROCOCCUS FAECIUM ATCC 8043; experiment: In vitro MIC, agar dilution (BHIA); format: cell-based
[10] = system: STREPTOCOCCUS BOVIS A5169; experiment: In vitro MIC, agar dilution (BHIA); format: cell-based; settings: STREPTOCOCCUS BOVIS A5169
[11] = system: STREPTOCOCCUS AGALACTIAE CMX 508; experiment: In vitro MIC, agar dilution (BHIA); format: cell-based; settings: STREPTOCOCCUS AGALACTIAE CMX 508
[12] = system: STREPTOCOCCUS PYOGENES EES61; experiment: In vitro MIC, agar dilution (BHIA); format: cell-based; settings: STREPTOCOCCUS PYOGENES EES61
[13] = system: STREPTOCOCCUS PYOGENES 930 CONST; experiment: In vitro MIC, agar dilution (BHIA); format: cell-based
[14] = system: STREPTOCOCCUS PYOGENES 2548 INDUC; experiment: In vitro MIC, agar dilution (BHIA); format: cell-based
ESCHERICHIA COLI JUHL = experiment: In vitro MIC, agar dilution (BHIA); format: cell-based
ESCHERICHIA COLI H560 = experiment: In vitro MIC, agar dilution (BHIA); format: cell-based
Excerpt: The MIC results are in ug/ml.

[15] = system: KLEBSIELLA PNEUMONIAE ATCC 8045; experiment: In vitro MIC, agar dilution (BHIA); format: cell-based
[16] = system: PSEUDOMONAS AERUGINOSA BMH10; experiment: In vitro MIC, agar dilution (BHIA); format: cell-based
[17] = system: PSEUDOMONAS AERUGINOSA K799/61; experiment: In vitro MIC, agar dilution (BHIA); format: cell-based
[18] = Conversion of prodrug to parent drug in whole blood at 37° C.; format: in vitro ADME, Rat
Experimental: as §1

[19] = as above; format: in vitro ADME, Human
Experimental: as §1

| Compound | MIC (Stap. Aureus CMX 553) | MIC (Strep. pyogenes EES 61) | MIC (E. Coli Juhl [1]) | MIC (Ps. Aeruginosa A5007) | SC (ED50) (E. Coli Juhl [2]) | Oral (ED50) (E. Coli Juhl [2]) | SC (ED50) (P. Aeruginosa A5007) | Oral (ED50) (P. Aeruginosa A5007) | SC (ED50) (Stap. Aureus NCTC 10649) | Oral (ED50) (Stap. Aureus NCTC 10649) | Half Life Dog [8] | Solubility pH 7.4 | other results |
| --- | --- | --- | --- | --- | --- | --- | --- | --- | --- | --- | --- | --- | --- |
| NCC(=O)NC1CCN(c2nc3c(cc2F)c(=O)c(C(=O)O)cn3-c2ccc(F)cc2F)C1 (stereo not shown) [Example 7] | 1.56 µg/mL (≈ 3.38 µM) | 0.78 µg/mL (≈ 1.69 µM) | 0.78 µg/mL (≈ 1.69 µM) | 12.5 µg/mL (≈ 27.1 µM) | 0.3 mg/kg/day | 5.0 mg/kg/day | 4.2 mg/kg/day | 11.4 mg/kg/day | 0.9 mg/kg/day | 2.4 mg/kg/day |  |  |  |
| NC1CCN(c2nc3c(cc2F)c(=O)c(C(=O)O)cn3-c2ccc(F)cc2F)C1 (stereo not shown) [tosufloxacin, 7-(3-amino-1-pyrrolidinyl)-6-fluoro,1-(2,4-difluorophenyl)-1,4-dihydro-4-o xo-1,8-naphthyridine 3-carboxylic acid, reference compound] |  |  |  |  | 0.2 mg/kg/day | 0.9 mg/kg/day | > 25 mg/kg/day | 6.2 mg/kg/day | 0.6 mg/kg/day | 1.5 mg/kg/day |  |  | MIC ([3]; ATCC9341, read-out: MIC): 1.56 µg/mL (≈ 3.86 µM); MIC ([4]; ATCC4698, read-out: MIC): 0.78 µg/mL (≈ 1.93 µM); MIC [5]: 1.56 µg/mL (≈ 3.86 µM); MIC ([6]; read-out: MIC): 0.78 µg/mL (≈ 1.93 µM); MIC ([7]; read-out: MIC): 0.78 µg/mL (≈ 1.93 µM); MIC (PSEUDOMONAS CEPACIA 296I; Burkholderia cepacia, read-out: MIC): 3.1 µg/mL (≈ 7.67 µM) |
| CSCCC(N)C(=O)NC1CCN(c2nc3c(cc2F)c(=O)c(C(=O)O)cn3-c2ccc(F)cc2F)C1 (stereo not shown) [Example 23] | 3.12 µg/mL (≈ 5.83 µM) | 3.12 µg/mL (≈ 5.83 µM) | 3.12 µg/mL (≈ 5.83 µM) | 5.0 µg/mL (≈ 9.34 µM) |  |  | 3.1 mg/kg/day | 11.5 mg/kg/day | 0.5 mg/kg/day | 1.5 mg/kg/day | 99.1 s |  |  |
| CC(C)CC(N)C(=O)NC1CCN(c2nc3c(cc2F)c(=O)c(C(=O)O)cn3-c2ccc(F)cc2F)C1 (stereo not shown) [Example 21] | 1.56 µg/mL (≈ 3.01 µM) | 6.2 µg/mL (≈ 12 µM) | 1.56 µg/mL (≈ 3.01 µM) | 25 µg/mL (≈ 48.3 µM) |  |  | 3.9 mg/kg/day | 12.5 mg/kg/day | 0.5 mg/kg/day | 2.4 mg/kg/day | 55.8 s | 0.14 mg/ml |  |
| 7-[3-Norvaline-amino-1-pyrrolidinyl]-1-(2,4-difluorophenyl)-6-fluoro-1,4-di hydro-4-oxo-1,8-naphthyridine-3-carboxylic acid hydrochloride [Example 2b] |  |  |  |  |  |  |  |  |  |  |  |  | MIC [3]: 25 µg/mL; MIC [4]: 25 µg/mL; MIC [9]: .78 µg/mL; MIC [10]: 1.56 µg/mL; MIC [11]: 1.56 µg/mL; MIC [12]: 1.56 µg/mL; MIC [13]: .78 µg/mL; MIC [14]: .39 µg/mL; MIC (ESCHERICHIA COLI JUHL): .78 µg/mL; MIC (ESCHERICHIA COLI H560): .78 µg/mL; MIC [15]: .39 µg/mL; MIC [16]: 6.2 µg/mL; MIC [6]: 12.5 µg/mL; MIC [7]: 6.2 µg/mL; MIC [17]: .39 µg/mL; MIC (PSEUDOMONAS CEPACIA 296I): 50 µg/mL; Half Life Rat [18]: 0.678 min; Half Life Human [19]: 75.5 s |
| CC(N)C(=O)NC1CCN(c2nc3c(cc2F)c(=O)c(C(=O)O)cn3-c2ccc(F)cc2F)C1 (stereo not shown) [Example 17] | 2.0 µg/mL (≈ 4.21 µM) |  | 0.5 µg/mL (≈ 1.05 µM) | 16 µg/mL (≈ 33.7 µM) | 0.4 mg/kg/day | 2.0 mg/kg/day | 5.7 mg/kg/day | 12.5 mg/kg/day | 0.7 mg/kg/day | 1.7 mg/kg/day | 97.0 s | 0.12 mg/ml |  |
| CCC[C@H](NC(=O)[C@@H](N)CCC)C(=O)NC1CCN(c2nc3c(cc2F)c(=O)c(C(=O)O)cn3-c2ccc(F)cc2F)C1 (stereo partly drawn) [Example 3b, 7-(3-L-Norvaline-L-Norvalineamino-1-pyrrolidinyl)-1-(2,4-difluorophenyl)-6-fluoro-1,4-dihydro-4-oxo-1,8-naphthyridine-3-carboxylic acid hydrochloride] |  | 12.5 µg/mL |  |  | 0.5 mg/kg/day | 4.0 mg/kg/day | 6.2 mg/kg/day | 9.1 mg/kg/day | 0.5 mg/kg/day | 1.8 mg/kg/day |  |  | Half Life Dog ([8]; conversion to parent drug in dog whole blood at 37° C., seconds): 86.5 s; Half Life Rat ([18]; conversion to parent drug in rat whole blood at 37° C., seconds): 0.858 min; Half Life Human ([19]; conversion to parent drug in human whole blood at 37° C., minutes): 2.1 m |
| NC(Cc1ccc(O)cc1)C(=O)NC1CCN(c2nc3c(cc2F)c(=O)c(C(=O)O)cn3-c2ccc(F)cc2F)C1 (stereo not shown) [Example 13] | 12.5 µg/mL (≈ 22 µM) | 12.5 µg/mL (≈ 22 µM) | 12.5 µg/mL (≈ 22 µM) | 50 µg/mL (≈ 88.1 µM) |  |  | 9.1 mg/kg/day | 15.1 mg/kg/day | 0.4 mg/kg/day | 1.7 mg/kg/day |  | 0.06 mg/ml |  |
| CCC[C@H](NC(=O)CNC(=O)CN)C(=O)NC1CCN(c2nc3c(cc2F)c(=O)c(C(=O)O)cn3-c2ccc(F)cc2F)C1 (stereo partly shown) [Example 30] | 25 µg/mL (≈ 40.5 µM) | 100 µg/mL (≈ 162 µM) | 25 µg/mL (≈ 40.5 µM) | > 100 µg/mL |  |  | 4.8 mg/kg/day | 3.3 mg/kg/day | 0.7 mg/kg/day | 2.2 mg/kg/day |  |  |  |
| O=C(O)c1cn(-c2ccc(F)cc2F)c2nc(N3CCC(NC(=O)C4CCCN4)C3)c(F)cc2c1=O (stereo not shown) [Example 28] | 1.56 µg/mL (≈ 3.11 µM) | 1.56 µg/mL (≈ 3.11 µM) | 1.56 µg/mL (≈ 3.11 µM) | 12.5 µg/mL (≈ 24.9 µM) |  |  | 3.1 mg/kg/day | 51.3 mg/kg/day | 0.5 mg/kg/day | 3.2 mg/kg/day | 41 m |  |  |

From patent publication US5057520A, “7-(peptidylpyrolidinyl)naphthyridine antibacterial compounds” (Abbott Laboratories, priority 1989, dated 1991)
